These results are taken from patent publication US10005792B2, “Aminoindane-, aminotetrahydronaphthalene- and aminobenzocyclobutane-derived PRMT5-inhibitors” (CTXT PTY LTD, priority 2014, dated 2018).

Assay [1] concerns the target T1, Full-length PRMT5 enzyme co-expressed with MEP50 (Homo sapiens (Human), UniProt O14744). Put plainly: PRMT5 Biochemical Assay. The note with it: 200 nM histone H4 derived peptide substrate, 1 μM S-Adenosyl methionine, 4 hours at 37° C, Transcreener EPIGEN fluorescence polarisation. As to the method: Compounds of the invention may be tested for in vitro activity in the following assay: A histone H4 derived peptide is used as substrate (amino acid sequence: […]NH2). Full-length PRMT5 enzyme (NCBI Reference sequence NP-006100.2) was co-expressed with Hiss-MEP50 in insect cells and purified via Nickel immobilized metal affinity and gel filtration chromatography (“the enzyme”).
The 6 μL assay reactions are run in Greiner brand black 384-well low volume plates. All reactions contained assay buffer (phosphate buffered saline, 0.01% (v/v) Tween-20, 0.01% (w/v) albumin from chicken egg white, 1 mM dithiothreitol, 200 nM peptide substrate, 1 μM S-Adenosyl methionine, and 15 ng/reaction enzyme, with the enzyme being omitted from negative control reactions. Compounds were added in a volume of 100 nL from dilution series prepared in DMSO, positive and negative control reactions receiving the same volume DMSO without compound. The plates were sealed with adhesive seals and incubated for 4 hours at 37° C. Reaction progress was measured using the Transcreener™ EPIGEN methyltransferase assay (BellBrook Labs, Madison, Wis.) as recommended by the manufacturer. To each reaction 2 μL detection mix were added, containing coupling enzymes, fluorescence polarisation tracer, and AMP antibody. Plates were incubated for 90 min before being read on a PerkinElmer EnVision™ plate reader in fluorescence polarisation mode.

Assay [2] has as its target T1, Full-length PRMT5 enzyme co-expressed with MEP50. Briefly: Revised PRMT5 Biochemical Assay. The note with it: 1 μM histone H4 derived peptide substrate, 1 μM S-Adenosyl methionine, 4 hours at 37 degree Celsius, Transcreener EPIGEN fluorescence polarisation. A digest of the protocol: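 Full-length human PRMT5 co-expressed with His-MEP50 in insect cells (15 ng/reaction), 1 μM H4-derived peptide and 1 μM SAM in PBS/0.01% Tween-20/egg albumin/1 mM DTT, 4 h at 37 °C. SAH formation read by Transcreener EPIGEN fluorescence polarisation after 90 min detection. IC50 from four-parameter fit of plate-normalised % inhibition.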

Assay [3] relates to symmetrical dimethylation of arginine (Di-Methyl Histone H4 Arginine 3) in cell line TE11. Put plainly: Revised PRMT5 Biomarker Assay. The note with it: Homo sapiens, TE-11; TE11 cells, 72 hours incubation, immunofluorescence, corrected for cell number (Hoechst 33342), plate reader based. How it is done: Compounds of the invention may be tested for potency to inhibit symmetrical dimethylation of arginine in the following assay:
The cell line TE11 was seeded at a density of 6,000 cells per well in 96 well optical quality tissue culture plates in DME medium and 10% foetal bovine serum, and allowed to adhere for 5 hours under standard culture conditions (37 degree Celsius, 5% CO2). Compound dilutions prepared in DMSO were added to the medium, with negative control wells reserved for treatment with DMSO only and positive controls receiving a potent PRMT5 inhibitor compound at 1 μM concentration. After incubation for 72 hours, the cells were fixed with 3.7% formaldehyde in PBS for 30 minutes at room temperature, washed with phosphate buffer saline and blocked with Odyssey blocking buffer (LI-COR, Lincoln, Nebr.). Rabbit anti-Di-Methyl Histone H4 Arginine 3 specific antibody (Epigentek) in Odyssey blocking buffer was added and incubated for 14 hours at 4 degree Celsius. After washing, anti-rabbit secondary antibody labelled with Alexa647 dye (LifeTechnologies) and Hoechst 33342 (1 μg/mL, SigmaAldrich) were added for 1 hour incubation. Plates were washed and read on a PerkinElmer Envision 2103 in fluorescence intensity scanning mode (24 scans across the well area). The methylation level information was corrected for the number of cells as expressed by the Hoechst 33342 stain, converted to percent inhibition relative to controls on the same plate and the data fitted against a four-parameter logistic model to determine the 50% inhibitory concentration (IC50 plate-reader based). Alternatively, the plates were imaged on a PerkinElmer Phenix high content imaging platform. Using a Columbus image analysis pipeline, individual nuclei were located by Hoechst 33342 stain and the methylation level was calculated from the Alexa647-related intensity in the same area. The resulting mean intensity per cell was directly converted to percent inhibition as outlined above (IC50, imager based)).

Each structure is given as a SMILES string.

T1 sequence (O14744 whole entry): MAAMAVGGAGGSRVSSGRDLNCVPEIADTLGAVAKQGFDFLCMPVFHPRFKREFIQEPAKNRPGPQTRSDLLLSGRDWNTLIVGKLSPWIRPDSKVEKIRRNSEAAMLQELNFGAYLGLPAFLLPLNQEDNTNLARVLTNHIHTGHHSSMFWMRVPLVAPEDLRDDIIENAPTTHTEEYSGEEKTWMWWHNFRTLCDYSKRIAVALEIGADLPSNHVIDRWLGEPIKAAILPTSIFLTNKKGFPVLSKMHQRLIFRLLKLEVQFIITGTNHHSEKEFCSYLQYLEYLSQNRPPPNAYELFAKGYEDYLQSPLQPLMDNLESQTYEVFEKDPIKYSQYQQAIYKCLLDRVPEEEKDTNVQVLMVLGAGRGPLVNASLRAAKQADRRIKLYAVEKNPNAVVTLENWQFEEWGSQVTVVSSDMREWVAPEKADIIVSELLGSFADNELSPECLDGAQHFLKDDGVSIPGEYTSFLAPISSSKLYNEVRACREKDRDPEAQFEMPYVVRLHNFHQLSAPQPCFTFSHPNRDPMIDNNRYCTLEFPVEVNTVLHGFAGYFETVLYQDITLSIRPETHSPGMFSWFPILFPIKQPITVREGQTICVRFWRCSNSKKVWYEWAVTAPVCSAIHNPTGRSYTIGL
T1 sequence (Q9BQA1 whole entry partner): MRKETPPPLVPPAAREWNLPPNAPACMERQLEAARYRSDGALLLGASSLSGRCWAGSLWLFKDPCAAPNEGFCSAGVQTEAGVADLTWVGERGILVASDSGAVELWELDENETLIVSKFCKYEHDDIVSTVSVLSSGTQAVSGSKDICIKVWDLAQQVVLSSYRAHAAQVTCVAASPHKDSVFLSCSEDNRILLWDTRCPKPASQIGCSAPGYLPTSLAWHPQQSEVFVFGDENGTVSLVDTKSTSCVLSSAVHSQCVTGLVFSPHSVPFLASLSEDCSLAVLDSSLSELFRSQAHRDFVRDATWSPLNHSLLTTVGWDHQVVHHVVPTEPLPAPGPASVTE

In assay [1], `O=C(NCC(O)CNC1CCc2cc(F)ccc2C1)c1ccc(Cl)cc1` (stereo not shown) [Compound 32, 4-Chloro-N-(3-((6-fluoro-1,2,3,4-tetrahydronaphthalen-2-yl)amino)-2-hydroxypropyl)benzamide] yielded an IC50 of 18800 nM. This lies in the double-digit micromolar range. Molecule `CN(CC(O)CNC(=O)c1ccc(Cl)cc1)C1CCc2ccccc2C1` (stereo not shown) [Compound 33, 4-Chloro-N-(2-hydroxy-3-(methyl(1,2,3,4-tetrahydronaphthalen-2-yl)amino)propyl) benzamide] showed a half-inhibitory concentration (IC50) in assay [1] of 24900 nM. On the same count and under the same terms, the result for `O=C(NCC(O)CNC1Cc2ccccc21)c1ccc(Cl)cc1` (stereo not shown) [Compound 34, N-(3-(Bicyclo[4.2.0]octa-1(6),2,4-trien-7-ylamino)-2-hydroxypropyl)-4-chlorobenzamide] reads 41100 nM. As to `O=C(NCC(O)CNC1Cc2ccccc2C1)c1ccc(C(=O)N2CC3CCC(C2)O3)cc1` (stereo not shown) [Compound 39, 4-(8-Oxa-3-azabicyclo[3.2.1]octane-3-carbonyl)-N-(3-((2,3-dihydro-1H-inden-2-yl)amino)-2-hydroxypropyl)benzamide], the midpoint of inhibition in assay [1], the IC50, lay at 120 nM.

In turn, `CC1(C)CN(C(=O)c2ccc(C(=O)NCC(O)CNC3Cc4ccccc4C3)cc2)CCO1` (stereo not shown) [Compound 41, N-(3-((2,3-Dihydro-1H-inden-2-yl)amino)-2-hydroxypropyl)-4-(2,2-dimethylmorpholine-4-carbonyl)benzamide] showed a 50% inhibitory concentration (IC50) in assay [1] of 157 nM. `CC(=O)N1CCC(Nc2cncc(C(=O)NCC(O)CNC3Cc4ccccc4C3)c2)CC1` (stereo not shown) [Compound 53, 5-((1-Acetylpiperidin-4-yl)amino)-N-(3-((2,3-dihydro-1H-inden-2-yl)amino)-2-hydroxypropyl)nicotinamide]: the figures for the IC50 in assay [2] and in assay [3] were 164 nM and 0.662 µM, respectively. As for `CC(=O)N1CCC(Nc2cc(C(=O)NC[C@H](O)CNC3Cc4ccccc4C3)ccn2)CC1` [Compound 55, (R)-2-((1-Acetylpiperidin-4-yl)amino)-N-(3-((2,3-dihydro-1H-inden-2-yl)amino)-2-hydroxypropyl)isonicotinamide], the IC50 in assay [2] was 450 nM; in assay [3] it was 0.122 µM. Consider `CC(=O)N1CCC(Nc2cc(C(=O)NC[C@@H](O)CNC3Cc4ccccc4C3)ccn2)CC1` [Compound 56, (S)-2-((1-Acetylpiperidin-4-yl)amino)-N-(3-((2,3-dihydro-1H-inden-2-yl)amino)-2-hydroxypropyl)isonicotinamide], for which the IC50 was 98 nM in assay [2] and 0.007 µM in assay [3]. For `CC[C@H]1COCCN1C(=O)c1ccc(C(=O)NC[C@@H](O)CNC2Cc3ccccc3C2)cc1` [Compound 70, N-((S)-3-((2,3-dihydro-1H-inden-2-yl)amino)-2-hydroxypropyl)-4-((S)-3-ethylmorpholine-4-carbonyl)benzamide], the values for the IC50 in assay [2] and in assay [3] were 157 nM and 0.015 µM, respectively. `CCOc1cc(C(=O)N2CCOCC2)ccc1C(=O)NC[C@@H](O)CNC1Cc2ccccc2C1` [Compound 75, (S)-N-(3-((2,3-dihydro-1H-inden-2-yl)amino)-2-hydroxypropyl)-2-ethoxy-4-(morpholine-4-carbonyl)benzamide]: the concentration for half-maximal inhibition (IC50) in assay [2] turned out to be 64 nM; in assay [3], 0.004 µM. For `CCOc1cc(C(=O)N2CCCC2)ccc1C(=O)NC[C@@H](O)CNC1Cc2ccccc2C1` [Compound 76, (S)-N-(3-((2,3-dihydro-1H-inden-2-yl)amino)-2-hydroxypropyl)-2-ethoxy-4-(pyrrolidine-1-carbonyl)benzamide], in that order: 209 nM and 0.008 µM. Turning to `CCOc1cc(C(=O)N2C3CCC2COC3)ccc1C(=O)NC[C@@H](O)CNC1Cc2ccccc2C1` [Compound 77, 4-(3-oxa-8-azabicyclo[3.2.1]octane-8-carbonyl)-N-((S)-3-((2,3-dihydro-1H-inden-2-yl)amino)-2-hydroxypropyl)-2-ethoxybenzamide], the IC50 amounted to 29 nM in assay [2] and 0.0005 µM in assay [3]. For `O=C(NC[C@@H](O)CNC1Cc2ccccc2C1)c1ccc(C(=O)N2C3CCC2COC3)cc1` [Compound 103, 4-(3-oxa-8-azabicyclo[3.2.1]octane-8-carbonyl)-N-((S)-3-((2,3-dihydro-1H-inden-2-yl)amino)-2-hydroxypropyl)benzamide], in that order: 120 nM and 0.017 µM. Turning to `O=C(NC[C@@H](O)CNC1Cc2ccccc2C1)c1ccc(C(=O)N2CC3CCC(C2)O3)cc1` [Compound 105, 4-(8-oxa-3-azabicyclo[3.2.1]octane-3-carbonyl)-N-((S)-3-((2,3-dihydro-1H-inden-2-yl)amino)-2-hydroxypropyl)benzamide], the IC50 in assay [2] came to 196 nM; in assay [3] it was 0.01 µM. The corresponding values for `CN(C[C@@H](O)CNC1Cc2ccccc2C1)C(=O)c1ccc(C(=O)N2CCOCC2)cc1` [Compound 111, (S)—N-(3-((2,3-Dihydro-1H-inden-2-yl)amino)-2-hydroxypropyl)-N-methyl-4-(morpholine-4-carbonyl)benzamide] are 10400 nM and greater than 2 µM. Take `CCOc1cc(C(=O)N2CCS(=O)(=O)CC2)ccc1C(=O)NC[C@@H](O)CNC1Cc2ccccc2C1` [Compound 114, (S)-N-(3-((2,3-dihydro-1H-inden-2-yl)amino)-2-hydroxypropyl)-4-(1,1-dioxidothiomorpholine-4-carbonyl)-2-ethoxybenzamide]: the figures for the IC50 in assay [2] and in assay [3] were 66 nM and 0.024 µM, respectively.

`O=C(NC[C@@H](O)CNC1Cc2ccccc2C1)c1ccc(C(=O)N2C3CCC2COC3)cc1Cl` [Compound 121, 4-(3-oxa-8-azabicyclo[3.2.1]octane-8-carbonyl)-2-chloro-N-((S)-3-((2,3-dihydro-1H-inden-2-yl)amino)-2-hydroxypropyl)benzamide]: the values for the IC50 in assay [2] and in assay [3] were 130 nM and 0.016 µM, respectively. With `CCOc1cc(C(=O)N2CCOC[C@H]2C)ccc1C(=O)NC[C@@H](O)CNC1Cc2ccccc2C1` [Compound 123, N-((S)-3-((2,3-dihydro-1H-inden-2-yl)amino)-2-hydroxypropyl)-2-ethoxy-4-((R)-3-methylmorpholine-4-carbonyl)benzamide], the concentration for half-maximal inhibition (IC50) in assay [2] worked out at 40 nM; in assay [3], 0.012 µM. `CCOc1cc(C(=O)N2CCOC[C@@H]2CC)ccc1C(=O)NC[C@@H](O)CNC1Cc2ccccc2C1` [Compound 124, N-((S)-3-((2,3-dihydro-1H-inden-2-yl)amino)-2-hydroxypropyl)-2-ethoxy-4-((S)-3-ethylmorpholine-4-carbonyl)benzamide]: the values for the IC50 in assay [2] and in assay [3] were 48 nM and 0.013 µM, respectively. As to `CCOc1cc(C(=O)N2C[C@H]3C[C@@H]2CO3)ccc1C(=O)NC[C@@H](O)CNC1Cc2ccccc2C1` [Compound 127, 4-((1R,4R)-2-oxa-5-azabicyclo[2.2.1]heptane-5-carbonyl)-N-((S)-3-((2,3-dihydro-1H-inden-2-yl)amino)-2-hydroxypropyl)-2-ethoxybenzamide], the IC50 was found to be 137 nM in assay [2] and 0.002 µM in assay [3]. The corresponding values for `O=C(NC[C@@H](O)CNC1Cc2ccccc2C1)c1ccc(C(=O)N2C3CCC2COC3)cc1F` [Compound 133, 4-(3-oxa-8-azabicyclo[3.2.1]octane-8-carbonyl)-N((S)-3-((2,3-dihydro-1H-inden-2-yl)amino)-2-hydroxypropyl)-2-fluorobenzamide] are 131 nM and 0.009 µM.
